Laboratory results: patent US7888319B2, “Compositions and methods for promoting wound healing and tissue regeneration” (MUSC Foundation for Research Development, priority 2004, dated 2011)
Ends that are not written are not given here.

What was measured:
NIH-3T3 cells = assay: In vitro scratch injury of NIH-3T3 monolayer (repopulation, PCNA immunolabeling); type: cell-based; details: 30 μM
Procedure: An NIH-3T3 monolayer was pre-treated with ACT 1 peptide (SEQ ID NO:2) for 24 hrs, and “scratch-injured” with a p200 pipette tip. The “scratch injury” was subsequently allowed to “heal” for 24 hours in the presence of (a, b) 30 μM ACT 1 peptide (SEQ ID NO:2), (c, d) 30 μM non-active control peptide (SEQ ID NO: 55), or (e, f) vehicle control solution containing no ACT peptide or control peptide. […] The repopulation of the “scratch injury” occurs in part via migration of the transformed cells crawling into the “scratch injury” area. Figures (b), (d) and (f) show proliferating cell nuclear antigen (PCNA) immunolabeling of cells in the “scratch injury” or at the injury edge.
NIH-3T3 fibroblasts were “scratch injured” and subject to the continuous presence of 30 μM ACT 1 peptide (SEQ ID NO:2) for 24 hours or the control conditions as outlined in FIG. 2. […] The cells have been labeled with fluorescent phalloidin to aid visualization. ACT peptide-treated cells show low levels of repopulation of the scratch injury area (white double headed arrows).
NIH-3T3 cells were grown over 2-3 days until forming a near-confluent monolayer on a tissue culture dish according to standard protocols and the monolayer was then pre-treated with ACT 1 peptide (SEQ ID NO:2) for 24 hrs, and “scratch-injured” with a p200 pipette tip. The “scratch injury” was subsequently allowed to repopulate for 24 hours in the presence of 30 μM ACT 1 peptide (SEQ ID NO:2) dissolved in the culture media (FIG. 2a, b) or in presence of two control conditions (FIG. 2c-f). In the first control condition, the “scratch-injured” cells were allowed to repopulate for 24 hours in the presence of a non-active control peptide (as in FIG. 1) dissolved in the culture media at a concentration of 30 μM (FIG. 2c, d). In the second control condition, phosphate buffered saline (PBS) was added to the culture media and the “scratch-injured” cells were allowed to repopulate in the presence of this vehicle control solution containing no ACT peptide or control peptide (FIG. 2e, f). […] The repopulation of the “scratch injury” occurs in part via migration of the transformed cells crawling into the “scratch injury” area. Figures (FIGS. 2b, d, and f) show proliferating cell nuclear antigen (PCNA) immunolabeling of cells in the “scratch injury” or at the injury edge.
The cells were labeled with fluorescent phalloidin to aid visualization. ACT peptide-treated cells show low levels of repopulation of the scratch injury area (white double headed arrows).

[1] = test system: 4 mm long incisional skin injury; assay: Incisional skin injury in neonatal mouse; type: in vivo
Procedure: Neonatal mouse pups were desensitized using hypothermia. A 4 mm long incisional skin injury was made using a scalpel through the entire thickness of the skin (down to the level of the underlying muscle) in the dorsal mid line between the shoulder blades. 30 μl of a solution of 20% pluronic (F-127) gel containing either no (control) or dissolved ACT 1 peptide (SEQ ID NO: 2) at a concentration of 60 μM was then applied to the incisional injuries. Control or ACT peptide containing gel was applied subsequently 24 hours after the initial application. No further application of control and ACT peptide containing gel was made after the second application. […] These differences in inflammation, swelling and healing between the control and ACT peptide and control treated injury persisted at the 72 (c, d) and 96 (e, f) hour time points. […] Note that images of the same injury on the same animal are shown at the different time points during the healing time course. Neonatal mouse pups were desensitized using hypothermia. A 4 mm long incisional skin injury was made using a scalpel through the entire thickness of the skin (down to the level of the underlying muscle) in the dorsal mid line between the shoulder blades. 30 μl of a solution of 20% pluronic (F-127) gel containing either no (control) or dissolved ACT 1 peptide (SEQ ID NO:2) at a concentration of 60 μM was then applied to the incisional injuries. Pluronic gel has mild surfactant properties that may aid in the uniform dispersion of the ACT peptide in micelles. More importantly, 20% pluronic gel stays liquid at temperatures below 15° C., but polymerizes at body temperature (37° C.). This property of pluronic gel probably aided in the controlled release of peptide into the tissue at the site of incisional injury, protecting the peptide from break-down in the protease-rich environment of the wound and also enabling active concentrations of the peptide to maintained over prolonged periods. Control or ACT peptide containing gel was applied subsequently 24 hours after the initial application. […]

RPRPDDLEI (not fully specified (N-terminus)) [ACT 1, carboxy-terminal 9 amino acids of human Cx43; amino terminus biotinylated in tests]
proliferating cell nuclear antigen (PCNA) immunolabeling of cells in the scratch injury or at the injury edge (NIH-3T3 cells; 24 hours after scratch): only low luminosity consistent with background and non-proliferation
% area of cells repopulating the scratch injury after 24 hours (NIH-3T3 cells; 24 hours, vs control conditions, p<0.000001): reduction of cells in the injury area in the presence of ACT peptide is dramatic
appearance of injury (closure, inflammation, swelling, healing) ([1]; 60 μM in 20% pluronic (F-127) gel, 30 μl, applied at 0 and 24 hours, by 48 hours, vs gel without peptide): significantly more closed, less inflamed, less swollen
differences in inflammation, swelling and healing versus control ([1]; 60 μM in 20% pluronic gel, 72 and 96 hour time points): persisted
scar appearance of wound ([1]; 60 μM in 20% pluronic gel, at 7 days): smoother and less scarred appearance
